Consider four compounds from patent US20090192176A1, “1H-PYRAZOLO[3,4-D]PYRIMIDINE, PURINE, 7H-PURIN-8(9H)-ONE, 3H-[1,2,3]TRIAZOLO[4,5-D]PYRIMIDINE, AND THIENO[3,2-D]PYRIMIDINE COMPOUNDS, THEIR USE AS mTOR KINASE AND PI3 KINASE INHIBITORS, AND THEIR SYNTHESES” (Wyeth, priority 2008, published 2009).

SMILES strings stand for the structures. A value given as a limit tells only on which side of the number the result lay.

The term IC50 denotes the concentration at which inhibition is half-maximal.

One assay relates to LNCap. The assay can be described thus: In vitro cell culture growth assay (MTS). The assay is classed as cell-based. Conditions: Homo sapiens, 72 h, prostate line LNCap, three days after drug treatment.
A further assay addresses T1, Human mTOR (Homo sapiens, UniProt P42345).
T1 construct: FLAG
The assay can be described thus: mTOR kinase assay (DELFIA format, purified enzyme). The assay is classed as biochemical. Conditions: His6-S6K substrate, read-out: TOR Kinase IC50.

The test system of the next assay is MDA468. As to the kind of experiment: In vitro cell culture growth assay (MTS). The assay is classed as cell-based. Conditions: Homo sapiens, 72 h, breast line MDA468, three days after drug treatment. The method, then:
In Vitro Cell Culture Growth Assay Methods:
Human tumor cell lines used include prostate lines LNCap and PC3MM2, breast lines MDA468, MCF7, renal line HTB44 (A498), colon line HCT116, and ovarian line OVCAR3. Cells were plated in 96-well culture plates. One day following plating, the inhibitors were added to cells. Three days after drug treatment, viable cell densities were determined by metabolic conversion (by viable cells) of the dye MTS, a well-established cell proliferation assay. The assays were performed using an assay kit purchased from Promega Corp. (Madison, Wis.) following the protocol supplied with the kit. The MTS assay results were read in a 96-well plate reader by measuring absorbance at 490 nm. The effect of each treatment was calculated as percent of control growth relative to the vehicle-treated cells grown in the same culture plate. The drug concentration that conferred 50% inhibition of growth was determined as IC50 (μg/ml).

For a further assay, the target named is PI3 Kinase α (Homo sapiens, UniProt P42336). As to the kind of experiment: Fluorescence polarization assay for PI3K. It counts as biochemical.
In a further assay the target is PI3 Kinase γ (Homo sapiens, UniProt P48736). The assay can be described thus: Fluorescence polarization assay for PI3K. The assay is classed as biochemical.
Assay [1] concerns acute lymphoblastic leukemia. Conditions: NOS/SCID xenograft mouse model of acute lymphoblastic leukemia; cited from earlier work.

Chain of PI3 Kinase γ (P48736 whole entry): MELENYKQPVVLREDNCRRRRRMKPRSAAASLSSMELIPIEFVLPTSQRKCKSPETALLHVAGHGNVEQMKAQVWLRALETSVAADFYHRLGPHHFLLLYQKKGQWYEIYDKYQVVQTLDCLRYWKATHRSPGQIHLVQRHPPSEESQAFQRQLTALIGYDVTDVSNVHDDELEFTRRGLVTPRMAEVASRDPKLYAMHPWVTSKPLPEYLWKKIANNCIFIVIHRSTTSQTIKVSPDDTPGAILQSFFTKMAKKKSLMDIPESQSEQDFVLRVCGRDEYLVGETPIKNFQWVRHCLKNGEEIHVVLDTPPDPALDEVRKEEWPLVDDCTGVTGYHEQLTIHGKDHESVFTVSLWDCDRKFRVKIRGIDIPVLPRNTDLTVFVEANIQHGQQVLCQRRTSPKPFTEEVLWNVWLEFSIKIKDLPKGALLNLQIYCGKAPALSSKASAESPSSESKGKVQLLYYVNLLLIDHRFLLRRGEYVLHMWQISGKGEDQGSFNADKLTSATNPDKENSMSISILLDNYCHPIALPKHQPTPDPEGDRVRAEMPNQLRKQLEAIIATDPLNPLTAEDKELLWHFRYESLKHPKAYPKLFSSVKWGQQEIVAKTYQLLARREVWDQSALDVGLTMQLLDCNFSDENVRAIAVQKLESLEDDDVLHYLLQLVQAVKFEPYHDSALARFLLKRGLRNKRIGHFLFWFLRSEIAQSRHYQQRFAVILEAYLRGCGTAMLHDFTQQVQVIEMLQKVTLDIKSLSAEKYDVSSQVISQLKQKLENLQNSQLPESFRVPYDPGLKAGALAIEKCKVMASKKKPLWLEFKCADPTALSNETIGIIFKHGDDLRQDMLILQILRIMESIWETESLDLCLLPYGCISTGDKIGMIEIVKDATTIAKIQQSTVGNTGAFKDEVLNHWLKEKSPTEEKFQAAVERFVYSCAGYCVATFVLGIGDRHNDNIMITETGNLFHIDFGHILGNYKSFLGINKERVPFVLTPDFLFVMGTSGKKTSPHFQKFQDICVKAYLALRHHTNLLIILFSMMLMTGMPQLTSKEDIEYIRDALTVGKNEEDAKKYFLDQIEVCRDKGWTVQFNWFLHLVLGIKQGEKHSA
Chain of PI3 Kinase α (P42336 whole entry): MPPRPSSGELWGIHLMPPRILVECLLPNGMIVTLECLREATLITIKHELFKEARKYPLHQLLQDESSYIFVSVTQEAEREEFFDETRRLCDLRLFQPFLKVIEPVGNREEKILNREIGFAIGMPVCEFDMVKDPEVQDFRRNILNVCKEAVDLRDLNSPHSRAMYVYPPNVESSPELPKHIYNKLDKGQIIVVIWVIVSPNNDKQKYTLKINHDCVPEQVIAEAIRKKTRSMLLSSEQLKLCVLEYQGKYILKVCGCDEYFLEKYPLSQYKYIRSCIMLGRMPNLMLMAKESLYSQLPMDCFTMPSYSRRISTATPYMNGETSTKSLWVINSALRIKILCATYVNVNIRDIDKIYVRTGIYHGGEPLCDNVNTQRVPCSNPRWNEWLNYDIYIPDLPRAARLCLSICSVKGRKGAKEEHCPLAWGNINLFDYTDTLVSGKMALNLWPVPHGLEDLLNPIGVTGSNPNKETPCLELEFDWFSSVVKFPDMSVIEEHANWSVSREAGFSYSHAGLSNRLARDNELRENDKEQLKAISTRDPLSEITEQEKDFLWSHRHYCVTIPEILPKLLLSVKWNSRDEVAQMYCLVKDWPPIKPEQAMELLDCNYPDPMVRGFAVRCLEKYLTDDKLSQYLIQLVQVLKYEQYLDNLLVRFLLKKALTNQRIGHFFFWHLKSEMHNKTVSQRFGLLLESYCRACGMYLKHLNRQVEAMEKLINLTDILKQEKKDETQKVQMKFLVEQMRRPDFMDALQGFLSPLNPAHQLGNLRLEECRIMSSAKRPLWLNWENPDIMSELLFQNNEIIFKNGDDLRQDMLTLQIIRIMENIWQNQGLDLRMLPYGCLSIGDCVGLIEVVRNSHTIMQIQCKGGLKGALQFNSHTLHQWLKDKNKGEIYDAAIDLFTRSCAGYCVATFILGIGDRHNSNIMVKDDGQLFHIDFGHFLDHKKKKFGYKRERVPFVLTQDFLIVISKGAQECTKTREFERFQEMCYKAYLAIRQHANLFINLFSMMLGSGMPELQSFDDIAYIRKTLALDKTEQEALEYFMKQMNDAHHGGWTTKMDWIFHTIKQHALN
Chain of PI3 Kinase α (P27986 whole entry partner): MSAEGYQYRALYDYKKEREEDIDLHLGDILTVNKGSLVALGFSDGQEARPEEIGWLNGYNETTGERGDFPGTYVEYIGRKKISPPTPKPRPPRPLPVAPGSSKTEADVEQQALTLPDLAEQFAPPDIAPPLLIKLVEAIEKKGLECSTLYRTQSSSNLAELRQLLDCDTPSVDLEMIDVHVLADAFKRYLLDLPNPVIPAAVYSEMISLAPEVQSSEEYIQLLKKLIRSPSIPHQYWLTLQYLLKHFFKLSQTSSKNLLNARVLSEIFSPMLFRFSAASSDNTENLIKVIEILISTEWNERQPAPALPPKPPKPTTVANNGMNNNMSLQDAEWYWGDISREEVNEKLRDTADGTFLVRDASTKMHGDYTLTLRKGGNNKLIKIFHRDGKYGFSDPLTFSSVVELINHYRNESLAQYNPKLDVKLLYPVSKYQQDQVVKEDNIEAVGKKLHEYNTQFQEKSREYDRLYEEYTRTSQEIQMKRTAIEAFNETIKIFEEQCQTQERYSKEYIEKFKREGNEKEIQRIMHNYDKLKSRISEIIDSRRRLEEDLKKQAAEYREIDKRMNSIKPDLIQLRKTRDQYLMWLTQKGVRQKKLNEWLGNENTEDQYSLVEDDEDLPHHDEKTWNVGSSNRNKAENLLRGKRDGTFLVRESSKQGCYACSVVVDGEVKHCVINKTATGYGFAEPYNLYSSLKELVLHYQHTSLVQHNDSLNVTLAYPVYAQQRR

Turning to `O=C(Nc1ccccc1)Nc1ccc(-c2nc(C3=CCOCC3)c3cnn(CC(F)(F)F)c3n2)cc1` [Compound 9, 1-{4-[4-(3,6-dihydro-2H-pyran-4-yl)-1-(2,2,2-trifluoroethyl)-1H-pyrazolo[3,4-d]pyrimidin-6-yl]phenyl}-3-phenylurea], the IC50 in the assay with LNCap came to 96 nM; at Human mTOR, 2.6 nM; in the assay on MDA468, 230 nM; at PI3 Kinase α it was 43 nM; against PI3 Kinase γ it was 74 nM.
The like results for `CCNC(=O)Nc1ccc(-c2nc(C3=CCOCC3)c3cnn(CC(F)(F)F)c3n2)cc1` [Compound 10, 1-{4-[4-(3,6-dihydro-2H-pyran-4-yl)-1-(2,2,2-trifluoroethyl)-1H-pyrazolo[3,4-d]pyrimidin-6-yl]phenyl}-3-ethylurea] were, in that order, 210 nM, 2.4 nM, 680 nM, 851 nM and above 10000 nM.
Consider `O=C(Nc1ccc(-c2nc(C3=CCOCC3)c3cnn(CC(F)(F)F)c3n2)cc1)OCCO` [Compound 10a, 2-hydroxyethyl {4-[4-(3,6-dihydro-2H-pyran-4-yl)-1-(2,2,2-trifluoroethyl)-1H-pyrazolo[3,4-d]pyrimidin-6-yl]phenyl}carbamate], for which the half-maximal inhibitory concentration (IC50) was determined as 170 nM in the assay with LNCap; 3550 nM on Human mTOR; 1200 nM in the assay with MDA468; 696 nM at PI3 Kinase α; 3360 nM against PI3 Kinase γ.
As for `CO[C@H]1C[C@@H]2CC[C@@H](C)[C@@](O)(O2)C(=O)C(=O)N2CCCC[C@H]2C(=O)O[C@H]([C@H](C)C[C@@H]2CC[C@@H](OC(=O)C(C)(CO)CO)[C@H](OC)C2)CC(=O)[C@H](C)/C=C(\C)[C@@H](O)[C@@H](OC)C(=O)[C@H](C)C[C@H](C)/C=C/C=C/C=C/1C` [Torisel], the “activity in xenograft model” value in assay [1] was “active”.
